Measurements taken from patent US9738634B2, “Heterocyclic amide compound and herbicide” (SYNGENTA PARTICIPATIONS AG, priority 2013, dated 2017).

Columns and labels:
Assay type in all cases: in vivo
Conditions in all cases: treatment dosage 320 g/ha
bulrush [1] = experiment: Test Example 2: weedkilling efficacy, growth period weed treatment in the submerged state; B: bulrush
Summary of the method: (§1)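 Barnyard grass, bulrush and oval-leafed pondweed sown in alluvial soil under 4 cm flooding, greenhouse 25 to 30° C. At 1-2 leaf stage, water-diluted emulsion applied to the water surface at stated g/ha dosages; effects scored 3 weeks later.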

bulrush [2] = experiment: Test Example 1: weedkilling efficacy, preemergent weed treatment in the submerged state; B: bulrush
Summary of the method: (§2)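 Visual scores against set criteria were taken 3 weeks after treatment. Compounds, as diluted emulsions at specified g/ha, went onto the water surface of 4 cm-flooded alluvial soil pots on the day weeds were sown and 2.5-leaf rice was transplanted; greenhouse held 25–30 °C.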

wheat [3] = experiment: Test Example 3: soil treatment, effect on crop; e: wheat
Summary of the method: (§3)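 Crop and weed responses were judged three weeks after a uniform surface spray of the water-diluted emulsion at the given g/ha rate. Seeds sat beneath about 1.5 cm of sterilized diluvial soil, and boxes stood in a greenhouse at 25 to 30° C.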

wild oat [4] = experiment: Test Example 4: weedkilling efficacy by foliar treatment; G: wild oat
Summary of the method: (§4)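 Seeds are spot-sown into sterilized diluvial soil and covered with about 1.5 cm of soil. After 14 days' greenhouse growth at 25 to 30° C, plants are sprayed on stems and leaves with diluted emulsion at the stated g/ha rate, then scored at 3 weeks.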

redroot pigweed [5] = experiment: Test Example 3: weedkilling efficacy through soil treatment; L: redroot pigweed
Summary of the method: as §3

directly sown rice [6] = experiment: Test Example 3: soil treatment, effect on crop; b: directly sown rice
Summary of the method: as §3

black-grass [7] = experiment: Test Example 3: weedkilling efficacy through soil treatment; H: black-grass
Summary of the method: as §3

barnyard grass [8] = experiment: Test Example 4: weedkilling efficacy by foliar treatment; F: barnyard grass
Summary of the method: as §4

crabgrass [9] = experiment: Test Example 3: weedkilling efficacy through soil treatment; D: crabgrass
Summary of the method: as §3

Italian ryegrass [10] = experiment: Test Example 4: weedkilling efficacy by foliar treatment; I: Italian ryegrass
Summary of the method: as §4

birds-eye speedwell = experiment: Test Example 3: weedkilling efficacy through soil treatment; p: birds-eye speedwell
Summary of the method: as §3

green foxtail [11] = experiment: Test Example 3: weedkilling efficacy through soil treatment; E: green foxtail
Summary of the method: as §3

Indian mallow [12] = experiment: Test Example 4: weedkilling efficacy by foliar treatment; K: Indian mallow
Summary of the method: as §4

fig-leafed goosefoot [13] = experiment: Test Example 4: weedkilling efficacy by foliar treatment; M: fig-leafed goosefoot
Summary of the method: as §4

transplanted rice = experiment: Test Example 1: preemergent weed treatment in the submerged state, effect on crop; a: transplanted rice
Summary of the method: as §2

rapeseed [14] = experiment: Test Example 3: soil treatment, effect on crop; g: rapeseed
Summary of the method: as §3

common wind-grass [15] = experiment: Test Example 3: weedkilling efficacy through soil treatment; J: common wind-grass
Summary of the method: as §3

beet [16] = experiment: Test Example 3: soil treatment, effect on crop; f: beet
Summary of the method: as §3

catchweed [17] = experiment: Test Example 4: weedkilling efficacy by foliar treatment; O: catchweed
Summary of the method: as §4

catchweed [18] = experiment: Test Example 3: weedkilling efficacy through soil treatment; O: catchweed
Summary of the method: as §3

beet [19] = experiment: Test Example 4: foliar treatment, effect on crop; f: beet
Summary of the method: as §4

soybean [20] = experiment: Test Example 3: soil treatment, effect on crop; d: soybean
Summary of the method: as §3

barnyard grass [21] = experiment: Test Example 1: weedkilling efficacy, preemergent weed treatment in the submerged state; A: barnyard grass
Summary of the method: as §2

chickweed [22] = experiment: Test Example 4: weedkilling efficacy by foliar treatment; N: chickweed
Summary of the method: as §4

corn [23] = experiment: Test Example 3: soil treatment, effect on crop; c: corn
Summary of the method: as §3

wild oat [24] = experiment: Test Example 3: weedkilling efficacy through soil treatment; G: wild oat
Summary of the method: as §3

oval-leafed pondweed [25] = experiment: Test Example 2: weedkilling efficacy, growth period weed treatment in the submerged state; C: oval-leafed pondweed
Summary of the method: as §1

redroot pigweed [26] = experiment: Test Example 4: weedkilling efficacy by foliar treatment; L: redroot pigweed
Summary of the method: as §4

Indian mallow [27] = experiment: Test Example 3: weedkilling efficacy through soil treatment; K: Indian mallow
Summary of the method: as §3

black-grass [28] = experiment: Test Example 4: weedkilling efficacy by foliar treatment; H: black-grass
Summary of the method: as §4

Italian ryegrass [29] = experiment: Test Example 3: weedkilling efficacy through soil treatment; I: Italian ryegrass
Summary of the method: as §3

chickweed [30] = experiment: Test Example 3: weedkilling efficacy through soil treatment; N: chickweed
Summary of the method: as §3

wheat [31] = experiment: Test Example 4: foliar treatment, effect on crop; e: wheat
Summary of the method: as §4

common wind-grass [32] = experiment: Test Example 4: weedkilling efficacy by foliar treatment; J: common wind-grass
Summary of the method: as §4

oval-leafed pondweed [33] = experiment: Test Example 1: weedkilling efficacy, preemergent weed treatment in the submerged state; C: oval-leafed pondweed
Summary of the method: as §2

barnyard grass [34] = experiment: Test Example 3: weedkilling efficacy through soil treatment; F: barnyard grass
Summary of the method: as §3

crabgrass [35] = experiment: Test Example 4: weedkilling efficacy by foliar treatment; D: crabgrass
Summary of the method: as §4

corn [36] = experiment: Test Example 4: foliar treatment, effect on crop; c: corn
Summary of the method: as §4

directly sown rice [37] = experiment: Test Example 4: foliar treatment, effect on crop; b: directly sown rice
Summary of the method: as §4

soybean [38] = experiment: Test Example 4: foliar treatment, effect on crop; d: soybean
Summary of the method: as §4

green foxtail [39] = experiment: Test Example 4: weedkilling efficacy by foliar treatment; E: green foxtail
Summary of the method: as §4

fig-leafed goosefoot [40] = experiment: Test Example 3: weedkilling efficacy through soil treatment; M: fig-leafed goosefoot
Summary of the method: as §3

barnyard grass [41] = experiment: Test Example 2: weedkilling efficacy, growth period weed treatment in the submerged state; A: barnyard grass
Summary of the method: as §1

rapeseed [42] = experiment: Test Example 4: foliar treatment, effect on crop; g: rapeseed
Summary of the method: as §4

With CC1=C(c2cccnc2F)C(=O)N(C(C)(C)C(=O)Nc2cc(Cl)cc(Br)n2)CO1 [B-2-12] the “B (bulrush) weedkilling efficacy grade” value (bulrush [1]) was 5 (weed kill ratio 90% or more, (practically complete withering)), the “B (bulrush) weedkilling efficacy grade” value (bulrush [2]) was 5 (weed kill ratio 90% or more, (practically complete withering)) and the “e (wheat) effect on crop grade” value (wheat [3]) was 0 (weed kill ratio 5% or less (practically no effect)). The “G (wild oat) weedkilling efficacy grade” value (wild oat [4]) was 4 (weed kill ratio 70% or more, less than 90%), the “L (redroot pigweed) weedkilling efficacy grade” value (redroot pigweed [5]) was 0 (weed kill ratio 5% or less (practically no effect)) and the “b (directly sown rice) effect on crop grade” value (directly sown rice [6]) was 3 (weed kill ratio 40% or more, less than 70%). The “H (black-grass) weedkilling efficacy grade” value (black-grass [7]) was 5 (weed kill ratio 90% or more, (practically complete withering)), the “F (barnyard grass) weedkilling efficacy grade” value (barnyard grass [8]) was 5 (weed kill ratio 90% or more, (practically complete withering)) and the “D (crabgrass) weedkilling efficacy grade” value (crabgrass [9]) was 5 (weed kill ratio 90% or more, (practically complete withering)). For the same molecule, the “I (Italian ryegrass) weedkilling efficacy grade” value (Italian ryegrass [10]) was 5 (weed kill ratio 90% or more, (practically complete withering)), the “P (birds-eye speedwell) weedkilling efficacy grade” value (birds-eye speedwell) was 4 (weed kill ratio 70% or more, less than 90%) and the “E (green foxtail) weedkilling efficacy grade” value (green foxtail [11]) was 5 (weed kill ratio 90% or more, (practically complete withering)). The “K (Indian mallow) weedkilling efficacy grade” value (Indian mallow [12]) was 5 (weed kill ratio 90% or more, (practically complete withering)), the “M (fig-leafed goosefoot) weedkilling efficacy grade” value (fig-leafed goosefoot [13]) was 4 (weed kill ratio 70% or more, less than 90%) and the “a (transplanted rice) effect on crop grade” value (transplanted rice) was 5 (weed kill ratio 90% or more, (practically complete withering)). The “g (rapeseed) effect on crop grade” value (rapeseed [14]) was 0 (weed kill ratio 5% or less (practically no effect)), the “J (common wind-grass) weedkilling efficacy grade” value (common wind-grass [15]) was 5 (weed kill ratio 90% or more, (practically complete withering)) and the “f (beet) effect on crop grade” value (beet [16]) was 0 (weed kill ratio 5% or less (practically no effect)). The “O (catchweed) weedkilling efficacy grade” value (catchweed [17]) was 4 (weed kill ratio 70% or more, less than 90%), the “O (catchweed) weedkilling efficacy grade” value (catchweed [18]) was 2 (weed kill ratio 20% or more, less than 40%) and the “f (beet) effect on crop grade” value (beet [19]) was 4 (weed kill ratio 70% or more, less than 90%). For the same molecule, the “d (soybean) effect on crop grade” value (soybean [20]) was 0 (weed kill ratio 5% or less (practically no effect)), the “A (barnyard grass) weedkilling efficacy grade” value (barnyard grass [21]) was 5 (weed kill ratio 90% or more, (practically complete withering)) and the “N (chickweed) weedkilling efficacy grade” value (chickweed [22]) was 4 (weed kill ratio 70% or more, less than 90%). The “c (corn) effect on crop grade” value (corn [23]) was 0 (weed kill ratio 5% or less (practically no effect)), the “G (wild oat) weedkilling efficacy grade” value (wild oat [24]) was 1 (weed kill ratio 5% or more, less than 20%) and the “C (oval-leafed pondweed) weedkilling efficacy grade” value (oval-leafed pondweed [25]) was 5 (weed kill ratio 90% or more, (practically complete withering)). The “L (redroot pigweed) weedkilling efficacy grade” value (redroot pigweed [26]) was 4 (weed kill ratio 70% or more, less than 90%), the “K (Indian mallow) weedkilling efficacy grade” value (Indian mallow [27]) was 0 (weed kill ratio 5% or less (practically no effect)) and the “H (black-grass) weedkilling efficacy grade” value (black-grass [28]) was 5 (weed kill ratio 90% or more, (practically complete withering)). For the same molecule, the “I (Italian ryegrass) weedkilling efficacy grade” value (Italian ryegrass [29]) was 5 (weed kill ratio 90% or more, (practically complete withering)), the “N (chickweed) weedkilling efficacy grade” value (chickweed [30]) was 4 (weed kill ratio 70% or more, less than 90%) and the “e (wheat) effect on crop grade” value (wheat [31]) was 0 (weed kill ratio 5% or less (practically no effect)). For the same molecule, the “J (common wind-grass) weedkilling efficacy grade” value (common wind-grass [32]) was 5 (weed kill ratio 90% or more, (practically complete withering)), the “C (oval-leafed pondweed) weedkilling efficacy grade” value (oval-leafed pondweed [33]) was 5 (weed kill ratio 90% or more, (practically complete withering)) and the “F (barnyard grass) weedkilling efficacy grade” value (barnyard grass [34]) was 5 (weed kill ratio 90% or more, (practically complete withering)). The “D (crabgrass) weedkilling efficacy grade” value (crabgrass [35]) was 5 (weed kill ratio 90% or more, (practically complete withering)), the “c (corn) effect on crop grade” value (corn [36]) was 4 (weed kill ratio 70% or more, less than 90%) and the “b (directly sown rice) effect on crop grade” value (directly sown rice [37]) was 5 (weed kill ratio 90% or more, (practically complete withering)). The “d (soybean) effect on crop grade” value (soybean [38]) was 4 (weed kill ratio 70% or more, less than 90%), the “E (green foxtail) weedkilling efficacy grade” value (green foxtail [39]) was 5 (weed kill ratio 90% or more, (practically complete withering)) and the “M (fig-leafed goosefoot) weedkilling efficacy grade” value (fig-leafed goosefoot [40]) was 3 (weed kill ratio 40% or more, less than 70%). The “A (barnyard grass) weedkilling efficacy grade” value (barnyard grass [41]) was 5 (weed kill ratio 90% or more, (practically complete withering)) and the “g (rapeseed) effect on crop grade” value (rapeseed [42]) was 4 (weed kill ratio 70% or more, less than 90%).
